In PubChem BioAssay (NCI):
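How tested: cells in 96-well plates exposed to compound for 48 hours at five concentrations. TGI marks complete inhibition of growth.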 Where a SMILES comes first, the peptide text is derived from it. The star is where a group is joined. Boc = CC(C)(C)OC(=O)*; OtBu = CC(C)(C)O*

Legend:
Assay in all cases: NCI-60 cell line screen, 48 h
MALME-3M melanoma = test system: MALME-3M melanoma
CAKI-1 renal = test system: CAKI-1 renal
SK-MEL-5 melanoma = test system: SK-MEL-5 melanoma
OVCAR-8 ovarian = test system: OVCAR-8 ovarian
SN12C renal = test system: SN12C renal
HCT-15 colon = test system: HCT-15 colon
BT-549 breast = test system: BT-549 breast
A498 renal = test system: A498 renal
NCI/ADR-RES ovarian = test system: NCI/ADR-RES ovarian
SF-539 CNS = test system: SF-539 CNS

SMILES | TGI (MALME-3M melanoma) | TGI (CAKI-1 renal) | TGI (SK-MEL-5 melanoma) | TGI (OVCAR-8 ovarian) | TGI (SN12C renal) | TGI (HCT-15 colon) | TGI (BT-549 breast) | TGI (A498 renal) | TGI (NCI/ADR-RES ovarian) | TGI (SF-539 CNS)
O=C(NNC(=O)c1cc2ccccc2[nH]1)c1cc2ccccc2[nH]1 | > 100 µM | > 100 µM | > 100 µM | > 100 µM | > 100 µM | > 100 µM | > 100 µM | > 100 µM | > 100 µM | > 100 µM
CCOC(=O)n1c(=O)nc2c3c(ncn21)Oc1c(c(-c2ccccc2)nn1-c1ccccc1)C3c1ccc(Cl)cc1 (stereo not given) | 3.24 µM | 2.96 µM | 3.07 µM | 3.06 µM | 3.21 µM | 2.4 µM | 2.95 µM | 3.85 µM | 3.11 µM | 2.9 µM
O=C(O)CN1CCN2CCOCCN(CC1)CCN(CC(=O)O)CC2 | > 100 µM | > 100 µM | > 100 µM | > 100 µM | > 100 µM | > 100 µM | > 100 µM | > 100 µM | > 100 µM | > 100 µM
NS(=O)(=O)c1ccc(NNc2c3ccccc3nc3c(C(=O)Nc4ccc(S(N)(=O)=O)cc4)cccc23)cc1 | 99.8 µM | > 100 µM | > 100 µM | > 100 µM | > 100 µM | > 100 µM | 54.7 µM | > 100 µM | > 100 µM | > 100 µM
CCOC(=O)c1c2ccccc2n2c(=O)n(-c3ccccc3)nnc12 | > 100 µM | > 100 µM | 41.7 µM | > 100 µM | > 100 µM | > 100 µM | > 100 µM | > 100 µM | > 100 µM | > 100 µM
O=c1[nH]c2ccccc2c(=O)c2cc3ccccc3cc12 | > 100 µM | 45.5 µM | > 100 µM | 37.7 µM | > 100 µM | > 100 µM | 45.2 µM | 48.4 µM | > 100 µM | > 100 µM
CSc1ccc(/C=C2\N=C(c3ccccc3)N(NC(=O)c3c(Cl)c(Cl)c(Cl)c(Cl)c3-c3nc4ccccc4[nH]3)C2=O)cc1 | > 100 µM | 85.3 µM | > 100 µM | > 100 µM | > 100 µM | > 100 µM | > 100 µM | 80.3 µM | > 100 µM | > 100 µM
NC(C(=O)O)C(O)c1cnc[nH]1 (stereo not given) | > 100 µM | > 100 µM | > 100 µM | > 100 µM | > 100 µM | > 100 µM | > 100 µM | > 100 µM | > 100 µM | > 100 µM
CC(=O)OCC1OC(NC(=S)Nn2c(-c3ccccc3)nc3ccccc3c2=O)C(OC(C)=O)C(OC(C)=O)C1OC(C)=O (stereo not given) | > 100 µM | > 100 µM | > 100 µM | > 100 µM | > 100 µM | > 100 µM | > 100 µM | > 100 µM | > 100 µM | > 100 µM
COC(=O)c1c(O)ccc2c1c1c(n2CCc2ccccc2)C(=O)c2ccccc2C1 | > 100 µM | 45.6 µM | 43 µM | > 100 µM | 35.4 µM | 63.8 µM | 63.1 µM | 40.5 µM | 53.1 µM | 45.2 µM
CN(C)CCCCN1c2ccccc2Sc2ccc(N=[N+]=[N-])cc21 | 3.17 µM | 18.4 µM | 3.04 µM | 22.1 µM | 22.2 µM | 12.8 µM | 24.5 µM | 21.5 µM | 23.3 µM | 16.8 µM
COc1cc(CCNC2=CC(=O)c3ncccc3C2=O)ccc1O | 1.98 µM | 12 µM | 1.84 µM | 14.3 µM | 6.71 µM | > 34.6 µM | 2.99 µM | 32.4 µM | > 23.3 µM | 7.83 µM
CC(=O)OCCn1c(Cc2ccc(Cl)cc2)nn(C(C)=O)c1=O | > 100 µM | > 100 µM | > 100 µM | > 100 µM | > 100 µM | > 100 µM | > 100 µM | > 100 µM | > 100 µM | > 100 µM
CC(C)(C)OC(=O)CC(NC(=O)OC(C)(C)C)C(=O)NC(Cc1ccccc1)C(N)=O (stereo not given) (Boc-Asp(OtBu)-Phe-NH2; configuration not given here) | > 100 µM | > 100 µM | > 100 µM | > 100 µM | > 100 µM | > 100 µM | > 100 µM | > 100 µM | > 100 µM | > 100 µM
